From the supplement of paper PMC11208160

Assay: recombinant barcode read abundance after kanamycin selection (control-corrected) (log10(CPM+1)); higher = more efficient recombination; sequences stand for … in AGTGCAGAGAAAATCGGCCAGTTTTCTCTGCCTGCAGTCCGCATGCCGT…AGATTTATGCAGCGGACTGCCTTTCTCCCAAAGTGATAAACCGGACAGTATCATGGACCGGTTTTCCCGGTAATCCGTATTTGCAAGGTTGGTTTCACT; site = the 11-nt target
How it was run: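 IS621 bridge RNA target-binding loops were paired with targets in a pooled library tested in E. coli. After co-electroporation with a donor plasmid, cells were plated in two replicates on chloramphenicol/ampicillin LB agar (control) and on chloramphenicol/ampicillin/kanamycin carrying 0.1 mM IPTG. Barcodes at recombinant junctions were counted as counts per million, averaged and control-corrected to give recombination efficiency. Values are log10(CPM+1).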
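Note: IS621 recombinase and bridge RNA in Escherichia coli cells.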

| Sequence | recombinant barcode read abundance (log10) |
| --- | --- |
| TATTGCCCTTGGGTTCTAACCTGTTGCCT (site TATTGCCCTAG) | 0.117 |
| TCAAACCCTTGGGTTCTAACCTGTTGCGG (site TCAAACCCTCC) | 1.6 |
| TCAAACCCTTGGGTTCTAACCTGTTGCGG (site TCCAACCCTCC) | 0.292 |
| TCAAACCCTTGGGTTCTAACCTGTTGCGG (site TCGAACCCTCC) | 0.0489 |
| TCAAACCCTTGGGTTCTAACCTGTTGCGG (site TCTAACCCTCC) | 0.279 |
| TCAAGACCTTGGGTTCTAACCTGTTGCCG (site TCAAGACCTAG) | 0.179 |
| TCAAGACCTTGGGTTCTAACCTGTTGCCG (site TCAAGACCTCG) | 0.461 |
| TCACAGGCTTGGGTTCTAACCTGTTGCCG (site TCACAGGCTCG) | 0.361 |
| TCACAGGCTTGGGTTCTAACCTGTTGCCG (site TCTCAGGCTCG) | 0.377 |
| TCACGGACTTGGGTTCTAACCTGTTGCCT (site TCACGGACTAG) | 1.1 |
| TCACGGACTTGGGTTCTAACCTGTTGCCT (site TCCCGGACTAG) | 0.101 |
| TCACGGACTTGGGTTCTAACCTGTTGCCT (site TCGCGGACTAG) | 0.0352 |
| TCACGGACTTGGGTTCTAACCTGTTGCCT (site TCTCGGACTAG) | 0.101 |
| TCACGTCCTTGGGTTCTAACCTGTTGCGT (site TCACGTCCTAA) | 0.0145 |
| TCACGTCCTTGGGTTCTAACCTGTTGCGT (site TCACGTCCTAC) | 1.3 |
| TCACGTCCTTGGGTTCTAACCTGTTGCGT (site TCACGTCCTAG) | 0.0596 |
| TCACGTCCTTGGGTTCTAACCTGTTGCGT (site TCACGTCCTAT) | 0.295 |
| TCACGTCCTTGGGTTCTAACCTGTTGCTT (site TCACGTCCTAA) | 0.137 |
| TCACGTCCTTGGGTTCTAACCTGTTGCTT (site TCACGTCCTAC) | 0.0167 |
| TCACGTCCTTGGGTTCTAACCTGTTGCTT (site TCACGTCCTAG) | 0.262 |

| Sequence | recombinant barcode read abundance (log10) |
| --- | --- |
| TCACGTCCTTGGGTTCTAACCTGTTGCTT (site TCACGTCCTAT) | 0.145 |
| TCAGAATCTTGGGTTCTAACCTGTTGCCT (site TCAGAATCTAG) | 0.667 |
| TCAGAATCTTGGGTTCTAACCTGTTGCCT (site TCAGCATCTAG) | 0 |
| TCAGAATCTTGGGTTCTAACCTGTTGCCT (site TCAGGATCTAG) | 0.371 |
| TCAGAATCTTGGGTTCTAACCTGTTGCCT (site TCAGTATCTAG) | 0.0618 |
| TCAGGGACTTGGGTTCTAACCTGTTGCAG (site TCAGGGACTCT) | 2.45 |
| TCAGGGACTTGGGTTCTAACCTGTTGCAG (site TCGGGGACTCG) | 0.375 |
| TCAGGTACTTGGGTTCTAACCTGTTGCCT (site ACAGGTACTAG) | 0.0983 |
| TCAGGTACTTGGGTTCTAACCTGTTGCCT (site CCAGGTACTAG) | 0.0713 |
| TCAGGTACTTGGGTTCTAACCTGTTGCCT (site GCAGGTACTAG) | 0.0652 |
| TCAGGTACTTGGGTTCTAACCTGTTGCCT (site TCAGGTACTAG) | 0.163 |
| TCAGTATCTTGGGTTCTAACCTGTTGCCT (site TCAGAATCTAG) | 0.145 |
| TCAGTATCTTGGGTTCTAACCTGTTGCCT (site TCAGCATCTAG) | 0.533 |
| TCAGTATCTTGGGTTCTAACCTGTTGCCT (site TCAGGATCTAG) | 0.107 |
| TCAGTATCTTGGGTTCTAACCTGTTGCCT (site TCAGTATCTAG) | 1.4 |
| TCATCTCCTTGGGTTCTAACCTGTTGCCT (site ACATCTCCTAG) | 0.188 |
| TCATCTCCTTGGGTTCTAACCTGTTGCCT (site CCATCTCCTAG) | 0.0972 |
| TCATCTCCTTGGGTTCTAACCTGTTGCCT (site GCATCTCCTAG) | 0.0477 |
| TCATCTCCTTGGGTTCTAACCTGTTGCCT (site TCATCTCCTAG) | 0.092 |
| TCATGGGCTTGGGTTCTAACCTGTTGCAG (site AGGGTTCCTAA) | 0.457 |

| Sequence | recombinant barcode read abundance (log10) |
| --- | --- |
| TCATGGGCTTGGGTTCTAACCTGTTGCAG (site TCATGGGCTCT) | 1.92 |
| TCCAAAGCTTGGGTTCTAACCTGTTGCTA (site TCCAAAGCTTA) | 0.249 |
| TCCAAAGCTTGGGTTCTAACCTGTTGCTA (site TCCCAAGCTTA) | 0.141 |
| TCCAAAGCTTGGGTTCTAACCTGTTGCTA (site TCCGAAGCTTA) | 0.294 |
| TCCAAAGCTTGGGTTCTAACCTGTTGCTA (site TCCTAAGCTTA) | 0.251 |
| TCCAACACTTGGGTTCTAACCTGTTGCGG (site TCCAAACCTCC) | 0.00935 |
| TCCAACACTTGGGTTCTAACCTGTTGCGG (site TCCAACACTCC) | 1.31 |
| TCCAACCCTTGGGTTCTAACCTGTTGCGG (site TCAAACCCTCC) | 0.0107 |
| TCCAACCCTTGGGTTCTAACCTGTTGCGG (site TCCAACCCTCC) | 1.78 |
| TCCAACCCTTGGGTTCTAACCTGTTGCGG (site TCGAACCCTCC) | 0.108 |
| TCCAACCCTTGGGTTCTAACCTGTTGCGG (site TCTAACCCTCC) | 0.3 |
| TCCAAGACTTGGGTTCTAACCTGTTGCAG (site ACCAAGACTCG) | 0.00865 |
| TCCAAGACTTGGGTTCTAACCTGTTGCAG (site TCCAAGACTCT) | 1.72 |
| TCCAAGCCTTGGGTTCTAACCTGTTGCAG (site TCCAAACCTCT) | 0.694 |
| TCCAAGCCTTGGGTTCTAACCTGTTGCAG (site TCCAACCCTCT) | 0.0251 |
| TCCAAGCCTTGGGTTCTAACCTGTTGCAG (site TCCAAGCCTCT) | 0.747 |
| TCCAAGCCTTGGGTTCTAACCTGTTGCAG (site TCCAATCCTCT) | 0.39 |
| TCCAATCCTTGGGTTCTAACCTGTTGCAG (site TCCAAACCTCT) | 0.114 |
| TCCAATCCTTGGGTTCTAACCTGTTGCAG (site TCCAACCCTCT) | 0.0551 |
